Calls of active or inactive are those of the source.
Key:
[1] = molecular target: T1, Runt-related transcription factor 1/Core-binding factor subunit beta (Homo sapiens, UniProt Q01196+Q13951); test: inhibitors of RUNX1 Runt–CBFb-SMMHC binding, primary screen, biochemical, FRET, Cerulean-Runt, Venus-CBFb-SMMHC, uHTS (AID 1434); assay type: protein assay;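 also: partner is the CBFb-SMMHC leukemia fusion protein rather than wild-type CBFb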
[2] = molecular target: T1, Runt-related transcription factor 1/Core-binding factor subunit beta; test: inhibitors of RUNX1 Runt–CBFb-SMMHC binding, biochemical, TR-FRET (AID 1438); assay type: protein assay
[3] = molecular target: T2, Estrogen receptor (Homo sapiens, UniProt P03372);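 also: potency for inhibiting coactivator peptide recruitment to the receptor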
T2 sequence (P03372 whole entry): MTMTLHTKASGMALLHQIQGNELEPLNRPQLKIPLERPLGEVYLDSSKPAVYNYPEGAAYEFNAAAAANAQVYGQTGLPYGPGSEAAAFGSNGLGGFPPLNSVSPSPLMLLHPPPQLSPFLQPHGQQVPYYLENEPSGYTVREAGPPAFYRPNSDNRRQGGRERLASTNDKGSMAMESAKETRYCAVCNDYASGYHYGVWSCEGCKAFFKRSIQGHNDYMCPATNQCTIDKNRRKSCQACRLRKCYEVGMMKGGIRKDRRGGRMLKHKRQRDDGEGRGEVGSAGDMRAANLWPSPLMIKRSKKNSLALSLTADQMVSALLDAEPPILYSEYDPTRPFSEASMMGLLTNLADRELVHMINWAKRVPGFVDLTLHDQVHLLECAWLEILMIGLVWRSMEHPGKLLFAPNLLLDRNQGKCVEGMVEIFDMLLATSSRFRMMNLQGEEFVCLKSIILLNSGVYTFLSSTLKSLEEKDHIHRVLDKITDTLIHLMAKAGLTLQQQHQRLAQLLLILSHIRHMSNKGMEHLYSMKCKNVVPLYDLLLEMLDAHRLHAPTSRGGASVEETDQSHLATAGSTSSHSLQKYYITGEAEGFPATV

[4] = molecular target: Troponin, cardiac muscle (Homo sapiens, UniProt P19429+P45379+P63316); test: Fluorescence-based biochemical high throughput dose response assay for activators of the calcium sensitivity of cardiac Regulated Thin Filaments (RTF). [Related pubchem assays (depositor defined):AID493008, AID493018, AID504382, AID504383]; assay type: protein-complex assay
[5] = molecular target: Protein Rev (Human immunodeficiency virus type 1 group M subtype B (isolate HXB2)(HIV-1), UniProt P04618); test: inhibitors of Rev binding to RRE RNA, dose response, biochemical, fluorescence polarization, HIV-1 (AID 434976); design: species or system Human immunodeficiency virus 1
[6] = molecular target: Female germline-specific tumor suppressor gld-1 (Caenorhabditis elegans, UniProt Q17339); test: inhibitors of GLD-1 binding to TGE RNA, dose response, biochemical, fluorescence polarization, C. elegans (AID 2802);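 also: fluorescence polarization of labeled TGE RNA bound by purified gld-1 protein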
[7] = molecular target: T3, Corticotropin-releasing factor receptor 2/Corticotropin-releasing factor-binding protein (Homo sapiens, UniProt P24387+Q13324); test: Dose Response confirmation of uHTS hits for small molecule antagonists of the CRF-binding protein and CRF-R2 receptor complex.; assay type: functional; settings: read-out: IC50_Mean
T3 sequence (Q13324 whole entry): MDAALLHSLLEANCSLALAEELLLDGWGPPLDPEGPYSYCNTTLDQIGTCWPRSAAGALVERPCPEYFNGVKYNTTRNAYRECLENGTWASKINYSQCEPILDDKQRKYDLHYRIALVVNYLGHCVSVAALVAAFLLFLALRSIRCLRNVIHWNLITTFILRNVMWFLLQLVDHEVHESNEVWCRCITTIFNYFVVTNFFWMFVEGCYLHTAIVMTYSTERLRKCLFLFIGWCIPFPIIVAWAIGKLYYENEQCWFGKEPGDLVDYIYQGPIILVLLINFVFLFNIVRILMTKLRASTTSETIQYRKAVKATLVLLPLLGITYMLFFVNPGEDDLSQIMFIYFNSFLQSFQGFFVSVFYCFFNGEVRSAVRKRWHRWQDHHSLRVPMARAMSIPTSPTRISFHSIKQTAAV
T3 sequence (P24387 whole entry): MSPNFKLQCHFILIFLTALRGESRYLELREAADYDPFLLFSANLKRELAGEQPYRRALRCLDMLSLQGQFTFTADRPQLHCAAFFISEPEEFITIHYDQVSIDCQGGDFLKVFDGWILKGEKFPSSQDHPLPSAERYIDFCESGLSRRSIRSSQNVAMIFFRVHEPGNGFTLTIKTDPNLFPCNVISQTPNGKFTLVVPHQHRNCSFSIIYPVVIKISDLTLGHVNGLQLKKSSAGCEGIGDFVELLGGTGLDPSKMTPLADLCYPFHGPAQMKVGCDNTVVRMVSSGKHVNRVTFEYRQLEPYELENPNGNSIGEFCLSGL

[8] = molecular target: T3, Corticotropin-releasing factor receptor 2/Corticotropin-releasing factor-binding protein; test: activators of CRF receptor 2 with binding protein – uHTS hits, confirmation (AID 602473); assay type: functional; settings: read-out: EC50_Mean
[9] = molecular target: Peroxisome proliferator-activated receptor gamma/Nuclear receptor coactivator 1 (Homo sapiens, UniProt P37231); test: (§1) TR-FRET dose response biochemical High Throughput Screening assay for agonists of the steroid receptor coactivator 1 (SRC-1) recruitment by the peroxisome proliferator-activated receptor gamma (PPAR gamma): non-selective agonists. [Related pubchem assays (depositor defined):AID1300, AID1808, AID504735, AID631]; assay type: protein assay
[10] = molecular target: Peroxisome proliferator-activated receptor gamma/Nuclear receptor coactivator 3 (Homo sapiens, UniProt P37231); test: as §1, with “3 (SRC-3)” for “1 (SRC-1)”, “assays: 1301 (Confirmation screen.), 1048 (Primary screen.)]” for “assays (depositor defined):AID1300, AID1808, AID504735, AID631]”; assay type: functional
[11] = molecular target: Peroxisome proliferator-activated receptor gamma/Nuclear receptor coactivator 2 (Homo sapiens, UniProt P37231); test: TR-FRET dose response biochemical High Throughput Screening assay for agonists of the steroid receptor coactivator 2 (SRC-2) recruitment by the peroxisome proliferator-activated receptor gamma (PPAR gamma): non-selective agonists. [Related pubchem assays: 1297, 1032 ]; assay type: functional
[12] = molecular target: T4, Short transient receptor potential channel 4 (Mus musculus, UniProt Q9QUQ5); test: mouse TRPC4 channel activators, dose response, cell-based, HEK293 TRPC4/mu-opioid, Fluo-4 calcium (AID 434937); assay type: functional
T4 sequence (Q9QUQ5 whole entry): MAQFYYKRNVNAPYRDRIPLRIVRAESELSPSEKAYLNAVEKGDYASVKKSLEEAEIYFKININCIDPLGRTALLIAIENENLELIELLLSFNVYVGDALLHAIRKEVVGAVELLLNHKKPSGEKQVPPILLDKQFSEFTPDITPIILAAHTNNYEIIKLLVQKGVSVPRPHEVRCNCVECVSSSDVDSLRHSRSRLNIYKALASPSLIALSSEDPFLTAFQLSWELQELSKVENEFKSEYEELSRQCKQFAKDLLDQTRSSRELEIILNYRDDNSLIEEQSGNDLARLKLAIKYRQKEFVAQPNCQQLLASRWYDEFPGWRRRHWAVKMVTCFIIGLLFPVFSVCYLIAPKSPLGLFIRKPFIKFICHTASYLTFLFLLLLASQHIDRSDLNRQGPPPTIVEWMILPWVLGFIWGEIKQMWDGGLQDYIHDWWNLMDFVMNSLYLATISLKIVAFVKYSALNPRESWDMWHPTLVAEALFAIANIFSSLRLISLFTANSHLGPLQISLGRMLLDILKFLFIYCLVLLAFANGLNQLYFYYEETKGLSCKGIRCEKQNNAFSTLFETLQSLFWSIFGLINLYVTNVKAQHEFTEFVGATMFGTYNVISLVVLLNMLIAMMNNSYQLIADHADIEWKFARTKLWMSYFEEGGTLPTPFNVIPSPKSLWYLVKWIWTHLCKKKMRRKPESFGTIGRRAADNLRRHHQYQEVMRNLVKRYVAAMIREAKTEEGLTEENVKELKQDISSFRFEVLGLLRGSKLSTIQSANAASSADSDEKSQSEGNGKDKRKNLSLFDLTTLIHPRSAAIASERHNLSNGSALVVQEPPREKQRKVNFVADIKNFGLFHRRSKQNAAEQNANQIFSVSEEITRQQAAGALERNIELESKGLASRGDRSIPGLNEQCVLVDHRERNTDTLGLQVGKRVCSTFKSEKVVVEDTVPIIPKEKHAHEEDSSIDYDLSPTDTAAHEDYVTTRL

[13] = molecular target: T5, SUMO-activating enzyme (Homo sapiens, UniProt Q9UBT2); test: SUMOylation inhibitor hit validation, confirmation, SUMOylation inhibitor project, biochemical, AlphaScreen (AID 2018); assay type: functional
[14] = molecular target: T5, SUMO-activating enzyme; test: inhibitors of in vitro SUMOylation cascade, primary screen, biochemical, HTRF, uHTS (AID 2006); assay type: protein-complex assay
[15] = molecular target: Ephrin type-A receptor 4 (Mus musculus, UniProt Q03137); test: inhibitors of EphA4 binding to KYL peptide, primary screen, biochemical, colorimetric, mouse EphA4 (AID 689); assay type: functional
[16] = molecular target: SUMO E1/E2 (Homo sapiens, UniProt P63279+Q9UBE0+Q9UBT2); test: SAR analysis of SUMOylation using HTRF in an in-Vitro dose response assay. [Related pubchem assays (depositor defined):AID2006, AID2011, AID2018, AID2069, AID2658]; assay type: functional
[17] = molecular target: Alkaline phosphatase, placental type (Homo sapiens, UniProt P05187); test: PLAP enzyme inhibitors, confirmation, biochemical, luminescence (AID 1512); assay type: functional
[18] = molecular target: T6, Alkaline phosphatase, tissue-nonspecific isozyme (Homo sapiens, UniProt P05186); test: human TNAP enzyme inhibitors, SAR follow-up, biochemical, luminescent, dose response (AID 1056)
T6 sequence (P05186 whole entry): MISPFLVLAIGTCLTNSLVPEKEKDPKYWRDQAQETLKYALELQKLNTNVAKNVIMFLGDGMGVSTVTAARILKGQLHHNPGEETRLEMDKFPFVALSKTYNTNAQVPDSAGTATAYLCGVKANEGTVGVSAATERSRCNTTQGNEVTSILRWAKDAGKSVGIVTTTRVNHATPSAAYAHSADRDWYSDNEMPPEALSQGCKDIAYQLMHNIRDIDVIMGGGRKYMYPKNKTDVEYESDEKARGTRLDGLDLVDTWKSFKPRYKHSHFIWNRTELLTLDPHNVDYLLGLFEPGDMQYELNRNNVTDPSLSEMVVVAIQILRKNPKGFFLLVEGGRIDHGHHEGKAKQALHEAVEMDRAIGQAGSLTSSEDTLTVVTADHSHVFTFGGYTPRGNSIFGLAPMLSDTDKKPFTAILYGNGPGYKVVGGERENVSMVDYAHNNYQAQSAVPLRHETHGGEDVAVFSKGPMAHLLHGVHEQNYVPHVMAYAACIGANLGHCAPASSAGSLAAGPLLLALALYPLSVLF

[19] = growth suppression of PTEN-null colon cells, dose response, cell-based, HCT116 PTEN knockout (AID 1047); assay type: functional;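 also: HCT116 colon tumor cells with PTEN knocked out; cells exposed to compound for 60 hours before readout; potency for loss of cell viability measured by luminescence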
[20] = growth suppression of beta-catenin-knockout colon cells, dose response, cell-based, HCT116, human colon tumor (AID 1045); assay type: functional;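 also: HCT116 colon tumor cells with beta catenin knocked out; cells exposed to compound for 60 hours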
[21] = THP-1 cell cytotoxicity, dose response, cytotoxicity control for non-replicating M. tuberculosis project (AID 489025); assay type: functional
[22] = HepG2 cell cytotoxicity, dose response, cytotoxicity control for non-replicating M. tuberculosis project (AID 489018); assay type: functional; settings: Mycobacterium tuberculosis
[23] = Vero E6 cell cytotoxicity, dose response, cytotoxicity control for non-replicating M. tuberculosis project, secondary assay (AID 492998); assay type: functional, VeroE6; settings: Vero C1008
[24] = cells; assay type: functional
[25] = test system: INS1; test: beta cell apoptosis inhibitors, cytokine rescue, dose response, luminescence, retest (AID 449756); assay type: functional, cell-based; settings: Rattus norvegicus;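 also: cell death triggered by IL-1 beta plus TNF-alpha plus IFN-gamma mixture; protective hits raise ATP signal compared with cytokine alone wells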
[26] = molecular target: Glyceraldehyde-3-phosphate dehydrogenase (Homo sapiens, UniProt P04406)

## CCOc1cc(C2C3=C(CCCC3=O)N(CCC(=O)O)C3=C2C(=O)CCC3)ccc1OS(=O)(=O)c1ccc(C)cc1
[1]
  IC50: 0.629 µM (active)
[2]
  IC50: 30.5 µM (active)

## O=C(Nc1nc(-c2nc3ccccc3s2)cs1)C1COc2ccccc2O1 (configuration not stated)
[3]
  IC50: 25.1 µM (active)
[4]
  EC50: > 71.5 µM (inactive)

## Cc1cccn2c(=O)c(/C=C(\C#N)C(=O)NCc3ccco3)c(N3CCC(C(N)=O)CC3)nc12
[1]
  IC50: > 100 µM (inactive)
[2]
  IC50: > 100 µM (inactive)

## CCOc1cc(C2C(C(=O)OC)=CN(C3CCCC3)C=C2C(=O)OC)cc(Br)c1O
[5]
  IC50: > 75.4 µM (not active)
[6]
  IC50: > 59.6 µM (inactive)
[7]
  IC50: > 47.1 µM (inactive)
[8]
  EC50: > 53 µM (inactive)

## CCCC(C)NC(=O)c1ccc(OCc2ccc(Cl)cc2)c(OC)c1 (configuration not stated)
[9]
  EC50: 157 µM (inactive)
[10]
  EC50: 13.8 µM (not active)
[11]
  EC50: > 79.4 µM (not active)

## CCn1c(N2CCN(C(S)=NCC(C)C)CC2)nc2ccccc21
[12]
  EC50: 1.68 µM (active)

## Cc1ccc(NC(=O)c2ccccc2OCC(=O)Nc2cccc(Cl)c2C)nc1
[13]
  IC50: 34.5 µM (active)
[14]
  IC50: 17.8 µM (active)

## COc1ccc(-n2c(NC(=O)c3ccc(Br)o3)c(C#N)c3nc4ccccc4nc32)cc1
[13]
  IC50: 8.09 µM (active)
[14]
  IC50: 17.8 µM (active)
[15]
  IC50: > 100 µM (not active)
[16]
  IC50: 20.2 µM (active)

## CCc1nnc(SCC(=O)c2ccc(O)c(O)c2)[nH]1
[17]
  IC50: 3.25 µM (active)
[18]
  IC50: 10.9 µM (active)

## CCn1cc(CN2CCC(n3nccc3NC(=O)CCOc3ccccc3)CC2)cn1
[12]
  EC50: 1.19 µM (active)

## O=C(Cc1ccccc1)N/N=C/c1ccc([N+](=O)[O-])s1
[19]
  EC50: 9.53 µM (active)
[20]
  EC50: 8.44 µM (active)
[21]
  CC50: 26.6 µM (active)
[22]
  CC50: 16 µM (active)
[23]
  CC50: 12.5 µM (active)
[24]
  IC50: 11.1 µM (active)
[25]
  AC50: 6.38 µM (active)

## O=C(c1cc(-c2ccc(Cl)cc2Cl)n[nH]1)N1CCOCC1
[26]
  IC50: > 100 µM (not active)
[17]
  IC50: > 100 µM (inactive)
